Measurements: patent US9637473B2, “Acrylamide derivatives as antimalarial agents” (priority 2013, dated 2017)
Structures can show the parent of a compound that is named as a salt.

system: P. Falciparum NF54; assay: Plasmodium falciparum in vitro assay ([3H]-hypoxanthine incorporation); format: cell-based; details: Plasmodium falciparum, Erythrocyte, P. Falciparum NF54, erythrocytic stages in human red blood cells, 50% human serum
Protocol: In Vitro Antimalarial Activity: Plasmodium falciparum In Vitro Assay: In vitro activity against erythrocytic stages of P. Falciparum in human red blood cells is determined using a [^3H]-hypoxanthine incorporation assay. One strain sensitive to all drugs (P. […] After 48 hours, [^3H]-hypoxanthine (0.5 μCi) is added to each well of a plate. The plates are incubated for a further 24 hours under the same conditions then harvested with a Betaplate cell harvester (Wallac) and washed with distilled water. The dried filters are inserted into a plastic foil with 10 mL of scintillation fluid and counted in a Betaplate liquid scintillation counter. IC50 values are calculated from sigmoidal inhibition curves using Microsoft Excel.

SMILES	IC50 [nM]
CN(c1ccncc1)c1ccc(CN(C(=O)/C=C/c2cccc(Cl)c2)C2CCN(Cc3ccccc3)CC2)cc1 [Example 153, (E)-N-(1-Benzyl-piperidin-4-yl)-3-(3-chloro-phenyl)-N-[4-(methyl-pyridin-4-yl-amino)-benzyl]-acrylamide]	87
CCc1ccc(/C=C/C(=O)N(Cc2ccc(N(C)c3ccncc3)cc2)C2CCN(Cc3ccccc3)CC2)cc1 [Example 147, (E)-N-(1-Benzyl-piperidin-4-yl)-3-(4-ethyl-phenyl)-N-[4-(methyl-pyridin-4-yl-amino)-benzyl]-acrylamide]	157
Cc1cc(Nc2ccc(CN(C(=O)/C=C/c3ccc(Cl)cc3)C3CCN(C4CCCC4)CC3)cn2)ccn1 [Example 169, (E)-3-(4-Chloro-phenyl)-N-(1-cyclopentyl-piperidin-4-yl)-N-[6-(2-methyl-pyridin-4-ylamino)-pyridin-3-ylmethyl]-acrylamide]	134
Cc1cc(Nc2ccc(CN(C(=O)/C=C/c3ccc(C(F)(F)F)cc3)C3CCN(Cc4coc(C)n4)CC3)cc2)ccn1 [Example 36, (E)-N-[1-(2-Methyl-oxazol-4-ylmethyl)-piperidin-4-yl]-N-[4-(2-methyl-pyridin-4-ylamino)-benzyl]-3-(4-trifluoromethyl-phenyl)-acrylamide]	143
Cc1nn(C)c(C)c1/C=C/C(=O)N(Cc1ccc(N(C)c2ccncc2)cc1)C1CCN(Cc2ccccc2)CC1 [Example 165, (E)-N-(1-Benzyl-piperidin-4-yl)-N-[4-(methyl-pyridin-4-yl-amino)-benzyl]-3-(1,3,5-trimethyl-1H-pyrazol-4-yl)-acrylamide]	192
Cc1cc(Nc2ccc(CN(C(=O)/C=C/c3ccc(C(F)(F)F)cc3)C3CCN(Cc4nc(C)oc4C)CC3)cc2)ccn1 [Example 32, (E)-N-[1-(2,5-Dimethyl-oxazol-4-ylmethyl)-piperidin-4-yl]-N-[4-(2-methyl-pyridin-4-ylamino)-benzyl]-3-(4-trifluoromethyl-phenyl)-acrylamide]	89
COc1ccccc1/C=C/C(=O)N(Cc1ccc(N(C)c2ccncc2)cc1)C1CCN(Cc2ccccc2)CC1 [Example 151, (E)-N-(1-Benzyl-piperidin-4-yl)-3-(2-methoxy-phenyl)-N-[4-(methyl-pyridin-4-yl-amino)-benzyl]-acrylamide]	222
CN(c1ccncc1)c1ccc(CN(C(=O)/C=C/c2ccc(C(F)(F)F)cc2)[C@H]2CCCN(C3CCCC3)C2)cc1 [Example 58, (S,E)-N-(1-cyclopentylpiperidin-3-yl)-N-(4-(methyl(pyridin-4-yl)amino)benzyl)-3-(4-(trifluoromethyl)phenyl)acrylamide]	149
Cc1cc(Nc2ccc(CN(C(=O)/C=C/c3ccc(C(F)(F)F)cc3)C3CCN(Cc4nc(C)cs4)CC3)cc2)ccn1 [Example 42, (E)-N-[4-(2-Methyl-pyridin-4-ylamino)-benzyl]-N-[1-(4-methyl-thiazol-2-ylmethyl)-piperidin-4-yl]-3-(4-trifluoromethyl-phenyl)-acrylamide]	343
O=C(/C=C/c1ccc(C(F)(F)F)cc1)N(Cc1ccc(Nc2ccnc3cc(Cl)ccc23)cc1)C1CCN(C2CCCC2)CC1 [Example 97, (E)-N-[4-(7-Chloro-quinolin-4-ylamino)-benzyl]-N-(1-cyclopentyl-piperidin-4-yl)-3-(4-trifluoromethyl-phenyl)-acrylamide]	120
Cc1cc(Nc2ccc(CN(C(=O)/C=C/c3ccc(C(F)(F)F)cc3)C3CCN(Cc4ncccn4)CC3)cc2)ccn1 [Example 47, (E)-N-[4-(2-Methyl-pyridin-4-ylamino)-benzyl]-N-(1-pyrimidin-2-ylmethyl-piperidin-4-yl)-3-(4-trifluoromethyl-phenyl)-acrylamide]	345
Cc1cc(Nc2ccc(CN(C(=O)/C=C/c3ccc(Cl)cc3)C3CCN(C4CCN(C)CC4)CC3)cc2)ccn1 [Example 117, (E)-3-(4-Chloro-phenyl)-N-(1′-methyl-[1,4′]bipiperidinyl-4-yl)-N-[4-(2-methyl-pyridin-4-ylamino)-benzyl]-acrylamide]	305
Cc1cc(Nc2ccc(CN(CC3(O)CCN(C)CC3)C(=O)/C=C/c3ccc(C(F)(F)F)cc3)cc2)ccn1 [Example 175, (E)-N-(4-Hydroxy-1-methyl-piperidin-4-ylmethyl)-N-[4-(2-methyl-pyridin-4-ylamino)-benzyl]-3-(4-trifluoromethyl-phenyl)-acrylamide]	334

Stronger by IC50, values ahead:

IC50 [nM]	SMILES
82	CC(C)CCN1CCC[C@H](N(Cc2ccc(N(C)c3ccncc3)cc2)C(=O)/C=C/c2ccc(C(F)(F)F)cc2)C1 [Example 61, (S,E)-N-(1-isopentylpiperidin-3-yl)-N-(4-(methyl(pyridin-4-yl)amino)benzyl)-3-(4-(trifluoromethyl)phenyl)acrylamide]
82	CN(C)CCCOc1ccc(CN(C(=O)/C=C/c2ccc(C(F)(F)F)cc2)C2CCN(C3CCCC3)CC2)cc1 [Example 205, (E)-N-(1-Cyclopentyl-piperidin-4-yl)-N-[4-(3-dimethylamino-propoxy)-benzyl]-3-(4-trifluoromethyl-phenyl)-acrylamide]
79	CN(c1ccncc1)c1ccc(CN(C(=O)/C=C/c2ccc(C(F)(F)F)cc2)C2CCCN(C3CCCC3)CC2)cc1 (racemic) [Example 60, (±)-(E)-N-(1-cyclopentylazepan-4-yl)-N-(4-(methyl(pyridin-4-yl)amino)benzyl)-3-(4-(trifluoromethyl)phenyl)acrylamide]
78	CN(c1ccncc1)c1ccc(CN(C(=O)/C=C/c2ccc(C(F)(F)F)cc2)[C@@H]2CCN(C3CCCC3)C2)cc1 [Example 113, (E)-N-((R)-1-Cyclopentyl-pyrrolidin-3-yl)-N-[4-(methyl-pyridin-4-yl-amino)-benzyl]-3-(4-trifluoromethyl-phenyl)-acrylamide]
76	Cc1cc(N(C)c2cccc(CN(C(=O)/C=C/c3ccc(C(F)(F)F)cc3)C3CCN(C(C)C)CC3)c2)ccn1 [Example 121, (E)-N-(1-Isopropyl-piperidin-4-yl)-N-{3-[methyl-(2-methyl-pyridin-4-yl)-amino]-benzyl}-3-(4-trifluoromethyl-phenyl)-acrylamide formate]
72	CN(c1ccncc1)c1ccc(CN(C(=O)/C=C/c2ccc(C(F)(F)F)cc2)C2CCN(Cc3ccc(C(F)(F)F)cc3)CC2)cc1 [Example 3, (E)-N-[4-(Methyl-pyridin-4-yl-amino)-benzyl]-N-[1-(4-trifluoromethyl-benzyl)-piperidin-4-yl]-3-(4-trifluoromethyl-phenyl)-acrylamide]
58	CN(c1ccncc1)c1ccc(CN(C(=O)/C=C/c2ccc(C(F)(F)F)cc2)C2CCN(Cc3ccccc3)CC2)cc1 [Example 6, (E)-N-(1-Benzyl-piperidin-4-yl)-N-[4-(methyl-pyridin-4-yl-amino)-benzyl]-3-(4-trifluoromethyl-phenyl)-acrylamide]
50	CN(c1ccncc1)c1ccc(CN(C(=O)/C=C/c2ccc(C(F)(F)F)cc2)[C@H]2CCN(C3CCCC3)C[C@H]2F)cc1 (racemic) [Example 76, (±)-(E)-N-(cis-1-cyclopentyl-3-fluoropiperidin-4-yl)-N-(4-(methyl(pyridin-4-yl)amino)benzyl)-3-(4-(trifluoromethyl)phenyl)acrylamide]
43	Cc1cc(Nc2ccc(CN(C(=O)/C=C/c3ccc(C(F)(F)F)cc3)C3CCN(C(C)C)CC3)cc2)ccn1 [Example 186, (E)-N-(1-Isopropyl-piperidin-4-yl)-N-[4-(2-methyl-pyridin-4-ylamino)-benzyl]-3-(4-trifluoromethyl-phenyl)-acrylamide]
43	O=C(/C=C/c1ccc(C(F)(F)F)cc1)N(Cc1ccc(Nc2ccncc2)cc1)C1CCN(C2CCCC2)CC1 [Example 86, (E)-N-(1-Cyclopentyl-piperidin-4-yl)-N-[4-(pyridin-4-ylamino)-benzyl]-3-(4-trifluoromethyl-phenyl)-acrylamide]
28	Cc1cc(Nc2ccc(CN(C(=O)/C=C/c3ccc(C(F)(F)F)cc3)C3CCN(C4CCCC4)CC3)cc2)cc(C)n1 [Example 87, (E)-N-(1-Cyclopentyl-piperidin-4-yl)-N-[4-(2,6-dimethyl-pyridin-4-ylamino)-benzyl]-3-(4-trifluoromethyl-phenyl)-acrylamide]
21	COc1ccc2nccc(Nc3ccc(CN(C(=O)/C=C/c4ccc(C(F)(F)F)cc4)C4CCN(C5CCCC5)CC4)cc3)c2c1 [Example 88, (E)-N-(1-Cyclopentyl-piperidin-4-yl)-N-[4-(6-methoxy-quinolin-4-ylamino)-benzyl]-3-(4-trifluoromethyl-phenyl)-acrylamide]
16	CN1CCC(N2CCC(CN(Cc3ccc(N(C)c4ccncc4)cc3)C(=O)/C=C/c3ccc(C(F)(F)F)cc3)CC2)CC1 [Example 187, (E)-N-(1′-Methyl-[1,4′]bipiperidinyl-4-ylmethyl)-N-[4-(methyl-pyridin-4-yl-amino)-benzyl]-3-(4-trifluoromethyl-phenyl)-acrylamide]
12	Cc1cc(Nc2ccc(CN(C(=O)/C=C/c3ccc(C(F)(F)F)cc3)C3CCN(Cc4ccc(O)c(CN(C)C)c4)CC3)cc2)ccn1 [Example 53, (E)-N-[1-(3-Dimethylaminomethyl-4-hydroxy-benzyl)-piperidin-4-yl]-N-[4-(2-methyl-pyridin-4-ylamino)-benzyl]-3-(4-trifluoromethyl-phenyl)-acrylamide]
11	CN(c1ccncc1)c1ccc(CN(C(=O)/C=C/c2ccc(C(F)(F)F)cc2)C2CCN(C3CCCC3)CC2)cc1 [Example 5, (E)-N-(1-Cyclopentyl-piperidin-4-yl)-N-[4-(methyl-pyridin-4-yl-amino)-benzyl]-3-(4-trifluoromethyl-phenyl)-acrylamide]
